In the data set the test system is CCRIS mutagenicity, Ames/micronucleus/aberration tests. The experiment in a line: CCRIS mutagenicity studies.
Where [1] appears, read: Test System: AMES SALMONELLA TYPHIMURIUM, Strain/Indicator: TA98, Metabolic Activation: NONE, Method: PREINCUBATION
Where [2] appears, read: Test System: AMES SALMONELLA TYPHIMURIUM, Strain/Indicator: TA98, Metabolic Activation: NONE, Method: STANDARD PLATE.
Setting [3] is: Test System: AMES SALMONELLA TYPHIMURIUM, Strain/Indicator: TA100, Metabolic Activation: NONE, Method: PREINCUBATION
Where [4] appears, read: Test System: AMES SALMONELLA TYPHIMURIUM, Strain/Indicator: TA100, Metabolic Activation: NONE, Method: STANDARD PLATE.

The structures appear in SMILES notation. Activity calls are given as the source filed them. The rule behind the calls is not given here.

Drawing on PubChem BioAssay AID1259407 (Chemical Carcinogenesis Research Information System (CCRIS), 2018), this text covers mutagenic call for two molecules.

Turning to `O=Cc1ccccc1[N+](=O)[O-]`, the mutagenic call (Test System: AMES SALMONELLA TYPHIMURIUM, Strain/Indicator: TA98, Metabolic Activation: HAMSTER, LIVER, S-9, AROCLOR 1254, Method: STANDARD PLATE) is “inactive; negative”; the mutagenic call under setting [1] is “inactive; negative”; the mutagenic call under setting [2] is “inactive; negative”; the mutagenic call (Test System: AMES SALMONELLA TYPHIMURIUM, Strain/Indicator: TA98, Metabolic Activation: RAT, LIVER, S-9, AROCLOR 1254, Method: STANDARD PLATE) was “inactive; negative”; the mutagenic call (Test System: AMES SALMONELLA TYPHIMURIUM, Strain/Indicator: TA98, Metabolic Activation: RAT, LIVER, S-9, KANECHLOR 500, Method: PREINCUBATION) was “inactive; negative”; the mutagenic call (Test System: AMES SALMONELLA TYPHIMURIUM, Strain/Indicator: TA98, Method: PREINCUBATION) is “inactive; negative”. In addition, the mutagenic call (Test System: AMES SALMONELLA TYPHIMURIUM, Strain/Indicator: TA100, Metabolic Activation: HAMSTER, LIVER, S-9, AROCLOR 1254, Method: STANDARD PLATE) is “inactive; negative”; the mutagenic call under setting [3] is “inactive; negative”; the mutagenic call under setting [4] was “inactive; negative”; the mutagenic call (Test System: AMES SALMONELLA TYPHIMURIUM, Strain/Indicator: TA100, Metabolic Activation: RAT, LIVER, S-9, AROCLOR 1254, Method: STANDARD PLATE) is “inactive; negative”; the mutagenic call (Test System: AMES SALMONELLA TYPHIMURIUM, Strain/Indicator: TA100, Metabolic Activation: RAT, LIVER, S-9, KANECHLOR 500, Method: PREINCUBATION) was “inactive; negative”; the mutagenic call (Test System: AMES SALMONELLA TYPHIMURIUM, Strain/Indicator: TA100, Method: PREINCUBATION) is “inactive; negative”. The mutagenic call by setting is: (Test System: AMES SALMONELLA TYPHIMURIUM, Strain/Indicator: TA1535, Metabolic Activation: HAMSTER, LIVER, S-9, AROCLOR 1254, Method: STANDARD PLATE) “inactive; negative”; (Test System: AMES SALMONELLA TYPHIMURIUM, Strain/Indicator: TA1535, Metabolic Activation: NONE, Method: PREINCUBATION) “inactive; negative”; (Test System: AMES SALMONELLA TYPHIMURIUM, Strain/Indicator: TA1535, Metabolic Activation: NONE, Method: STANDARD PLATE) “inactive; negative”; (Test System: AMES SALMONELLA TYPHIMURIUM, Strain/Indicator: TA1535, Metabolic Activation: RAT, LIVER, S-9, AROCLOR 1254, Method: STANDARD PLATE) “inactive; negative”; (Test System: AMES SALMONELLA TYPHIMURIUM, Strain/Indicator: TA1535, Method: PREINCUBATION) “inactive; negative”; (Test System: AMES SALMONELLA TYPHIMURIUM, Strain/Indicator: TA1537, Metabolic Activation: HAMSTER, LIVER, S-9, AROCLOR 1254, Method: STANDARD PLATE) “inactive; negative”. In addition, the mutagenic call (Test System: AMES SALMONELLA TYPHIMURIUM, Strain/Indicator: TA1537, Metabolic Activation: NONE, Method: PREINCUBATION) is “inactive; negative”; the mutagenic call (Test System: AMES SALMONELLA TYPHIMURIUM, Strain/Indicator: TA1537, Metabolic Activation: NONE, Method: STANDARD PLATE) was “inactive; negative”; the mutagenic call (Test System: AMES SALMONELLA TYPHIMURIUM, Strain/Indicator: TA1537, Metabolic Activation: RAT, LIVER, S-9, AROCLOR 1254, Method: STANDARD PLATE) was “inactive; negative”; the mutagenic call (Test System: AMES SALMONELLA TYPHIMURIUM, Strain/Indicator: TA1537, Method: PREINCUBATION) is “inactive; negative”; the mutagenic call (Test System: AMES SALMONELLA TYPHIMURIUM, Strain/Indicator: TA1538, Metabolic Activation: HAMSTER, LIVER, S-9, AROCLOR 1254, Method: STANDARD PLATE) is “inactive; negative”; the mutagenic call (Test System: AMES SALMONELLA TYPHIMURIUM, Strain/Indicator: TA1538, Metabolic Activation: NONE, Method: PREINCUBATION) was “inactive; negative”. In addition, the mutagenic call is “inactive; negative” (Test System: AMES SALMONELLA TYPHIMURIUM, Strain/Indicator: TA1538, Metabolic Activation: NONE, Method: STANDARD PLATE); “inactive; negative” (Test System: AMES SALMONELLA TYPHIMURIUM, Strain/Indicator: TA1538, Metabolic Activation: RAT, LIVER, S-9, AROCLOR 1254, Method: STANDARD PLATE); “inactive; negative” (Test System: AMES SALMONELLA TYPHIMURIUM, Strain/Indicator: TA1538, Method: PREINCUBATION); “inactive; negative” (Test System: Mouse lymphoma, Strain/Indicator: L5178Y (tk+/tk-), Metabolic Activation: None, Method: Suspension/plate); “inactive; negative” (Test System: Mouse lymphoma, Strain/Indicator: L5178Y (tk+/tk-), Metabolic Activation: Rat, Liver, S-9, Aroclor 1254, Method: Suspension/plate).

For the molecule `CC[C@]1(O)CC2CN(CCc3c([nH]c4ccccc34)[C@@](C(=O)OC)(c3cc4c(cc3OC)N(C=O)[C@H]3[C@@](O)(C(=O)OC)[C@H](OC(C)=O)[C@]5(CC)C=CCN6CC[C@]43[C@@H]65)C2)C1` (stereo partly specified), the mutagenic call is, setting by setting: (End Point: In vitro micronucleus, Test System: Human lymphoblastoid TK6 cells, Metabolic Activation: None) “active; positive (p<0.001)”; (End Point: In vivo micronucleus, Test System: Peripheral blood lymphocytes, Species: Human, Strain/Sex: Workers (6 males and 9 females) and matched controls, Route: Occupational) “active; positive, both mean micronuclei rate and mean micronucleated cells rate signific”; under setting [1], “inactive; negative”; under setting [2], “inactive; negative”; (Test System: AMES SALMONELLA TYPHIMURIUM, Strain/Indicator: TA98, Metabolic Activation: S-9, Method: PREINCUBATION) “inactive; negative”; (Test System: AMES SALMONELLA TYPHIMURIUM, Strain/Indicator: TA98, Metabolic Activation: S-9, Method: STANDARD PLATE) “inactive; negative”. The mutagenic call is “inactive; negative” under setting [3]; “inactive; negative” under setting [4]; “inactive; negative” (Test System: AMES SALMONELLA TYPHIMURIUM, Strain/Indicator: TA100, Metabolic Activation: S-9, Method: PREINCUBATION); “inactive; negative” (Test System: AMES SALMONELLA TYPHIMURIUM, Strain/Indicator: TA100, Metabolic Activation: S-9, Method: STANDARD PLATE); “inactive; negative” (Test System: AMES SALMONELLA TYPHIMURIUM, Strain/Indicator: TA1537, Metabolic Activation: S-9, Method: STANDARD PLATE); “inactive; negative” (Test System: CHINESE HAMSTER V-79, Strain/Indicator: V-79 (HGPRT)/6-THIOGUANINE, Metabolic Activation: NONE). Moreover, the mutagenic call was “inactive; negative” (Test System: CHINESE HAMSTER V-79, Strain/Indicator: V-79/6-THIOGUANINE, Metabolic Activation: NONE, Method: SUSPENSION/PLATE); “inactive; negative” (Test System: CHINESE HAMSTER V-79, Strain/Indicator: V-79/6-THIOGUANINE, Metabolic Activation: RAT, LIVER, HEPATOCYTES, Method: SUSPENSION/PLATE); “inactive; negative” (Test System: E. COLI, Strain/Indicator: WP2 (HCR), Metabolic Activation: NONE, Method: STANDARD PLATE); “inactive; negative” (Test System: E. COLI, Strain/Indicator: WP2 (HCR), Metabolic Activation: S-9, Method: STANDARD PLATE); “active; positive” (Test System: MOUSE LYMPHOMA, Strain/Indicator: L5178Y (TK+/TK-), Metabolic Activation: NONE).
